Results: patent publication US3960845A, “Process for preparing 7β-acylamino-7α-alkoxycephalosporins or 6β-acylamino-6α-alkoxypenicillins” (Sankyo Company Limited, priority 1974, dated 1976)
Converted amounts (≈) assume the structure as drawn. Where two headings read alike, the source gives them in different places.

Assays:
Format in all cases: cell-based
[1] = system: Staphylococcus aureus (CP and PC resistant); assay: Minimal inhibitory concentration; conditions: I B: Staphylococcus aureus (CP and PC resistant)
Excerpt: (§1) Minimal inhibitory concentrations of various microorganisms mcg/ml
1 B Staphylococcus aureus

[2] = system: broad pathogenic microorganisms; assay: antimicrobial activity; conditions: result in words
[3] = system: Klebsiella neumoniae 846 (CER resistant); assay: Minimal inhibitory concentration; conditions: IV B: Klebsiella neumoniae 846 (CER resistant)
Excerpt: as §1
IV B Klebsiella neumoniae 846 (CER resistant)

Klebsiella neumoniae 806 = assay: Minimal inhibitory concentration; conditions: IV A: Klebsiella neumoniae 806; read-out: Minimal inhibitory concentration
Excerpt: as §1
IV A Klebsiella neumoniae 806

E. coli NIHJ = assay: Minimal inhibitory concentration; conditions: Escherichia coli; II A: E. coli NIHJ
Excerpt: as §1

Proteus vulgaris = assay: Minimal inhibitory concentration; conditions: V: Proteus vulgaris; read-out: Minimal inhibitory concentration
Excerpt: as §1

[4] = system: Staphylococcus aureus 209p; assay: Minimal inhibitory concentration; conditions: I A: Staphylococcus aureus 209p; read-out: Minimal inhibitory concentration
Excerpt: as §1
1 A Staphylococcus aureus 209p

[5] = system: E. coli 609 (CER resistant); assay: Minimal inhibitory concentration; conditions: Escherichia coli; II B: E. coli 609 (CER resistant); read-out: Minimal inhibitory concentration
Excerpt: as §1
II B E. coli 609 (CER resistant)

[6] = system: Salmonella enteritidis Gaertner; assay: Minimal inhibitory concentration; conditions: Salmonella enterica; VI: Salmonella enteritidis Gaertner; read-out: Minimal inhibitory concentration
Excerpt: as §1
VI Salmonella enteritidis Gaertner

[7] = system: Shigella flexneri Komagome; assay: Minimal inhibitory concentration; conditions: read-out: Minimal inhibitory concentration
Excerpt: as §1
III Shigella flexneri Komagome

[8] = III: Shigella flexneri Komagome

CO[C@@]1(NC(=O)CSCN=[N+]=[N-])C(=O)N2C(C(=O)O)=C(COC(C)=O)CS[C@@H]21 [7β-azidomethylthioacetamido-7α-methoxy-3-acetoxymethyl-3-cephem-4-carboxylic acid]
MIC [1]: 0.8 µg/mL (≈ 1.85 µM)
antimicrobial activity against broad pathogenic microorganisms [2]: excellent antimicrobial activity
MIC [3]: > 200 µg/mL
MIC (Klebsiella neumoniae 806): 6.2 µg/mL (≈ 14.4 µM)
MIC (E. coli NIHJ): 6.2 µg/mL (≈ 14.4 µM)
MIC (Proteus vulgaris): 3.1 µg/mL (≈ 7.19 µM)
MIC [4]: 0.4 µg/mL (≈ 0.927 µM)
MIC [5]: 6.2 µg/mL (≈ 14.4 µM)
MIC [6]: 1.5 µg/mL (≈ 3.48 µM)
MIC [7, 8]: 6.2 µg/mL (≈ 14.4 µM)

CO[C@@]1(NC(=O)CSCC#N)C(=O)N2C(C(=O)O)=C(COC(C)=O)CS[C@@H]21 [7β-cyanomethylthioacetamido-7α-methoxy-3-acetoxymethyl-3-cephem-4-carboxylic acid]
MIC [1]: 0.8 µg/mL (≈ 1.93 µM)
antimicrobial activity against broad pathogenic microorganisms [2]: excellent antimicrobial activity
MIC [3]: > 400 µg/mL
MIC (Klebsiella neumoniae 806): 1.5 µg/mL (≈ 3.61 µM)
MIC (E. coli NIHJ): 1.5 µg/mL (≈ 3.61 µM)
MIC (Proteus vulgaris): 6.2 µg/mL (≈ 14.9 µM)
MIC [4]: 0.2 µg/mL (≈ 0.481 µM)
MIC [5]: 1.5 µg/mL (≈ 3.61 µM)
MIC [6]: 0.8 µg/mL (≈ 1.93 µM)
MIC [7, 8]: 3.1 µg/mL (≈ 7.46 µM)

CO[C@@]1(NC(=O)CSCC#N)C(=O)N2C(C(=O)O)=C(COC(N)=O)CS[C@@H]21 [7β-cyanomethylthioacetamido-7α-methoxy-3-carbamoyloxymethyl-3-cephem-4-carboxylic acid]
MIC [1]: 1.5 µg/mL (≈ 3.6 µM)
antimicrobial activity against broad pathogenic microorganisms [2]: excellent antimicrobial activity
MIC [3]: > 400 µg/mL
MIC (Klebsiella neumoniae 806): 0.4 µg/mL (≈ 0.961 µM)
MIC (E. coli NIHJ): 1.5 µg/mL (≈ 3.6 µM)
MIC (Proteus vulgaris): 6.2 µg/mL (≈ 14.9 µM)
MIC [4]: 0.8 µg/mL (≈ 1.92 µM)
MIC [5]: 0.8 µg/mL (≈ 1.92 µM)
MIC [6]: 0.4 µg/mL (≈ 0.961 µM)
MIC [7, 8]: 3.1 µg/mL (≈ 7.44 µM)

CO[C@@]1(NC(=O)CS(C)(=O)=O)C(=O)N2C(C(=O)O)=C(CSc3nnnn3C)CS[C@@H]21 [7β-methylsulfonylacetamido-7α-methoxy-3-(1-methyl-1H-tetrazole-5-yl)thiomethyl-3-cephem-4-carboxylic acid]
MIC [1]: 3.1 µg/mL (≈ 6.48 µM)
antimicrobial activity against broad pathogenic microorganisms [2]: excellent antimicrobial activity
MIC [3]: 400 µg/mL (≈ 836 µM)
MIC (Klebsiella neumoniae 806): 0.8 µg/mL (≈ 1.67 µM)
MIC (E. coli NIHJ): 1.5 µg/mL (≈ 3.13 µM)
MIC (Proteus vulgaris): 12.5 µg/mL (≈ 26.1 µM)
MIC [4]: 0.8 µg/mL (≈ 1.67 µM)
MIC [5]: 1.5 µg/mL (≈ 3.13 µM)
MIC [6]: 0.4 µg/mL (≈ 0.836 µM)
MIC [7, 8]: 1.5 µg/mL (≈ 3.13 µM)

C#CCSCC(=O)N[C@]1(OC)C(=O)N2C(C(=O)O)=C(CSc3nnnn3C)CS[C@@H]21 [7β-propargylthioacetamido-7α-methoxy-3-(1-methyl-1H-tetrazol-5-yl)thiomethyl-3-cephem-4-carboxylic acid]
MIC [1]: 0.8 µg/mL (≈ 1.7 µM)
antimicrobial activity against broad pathogenic microorganisms [2]: excellent antimicrobial activity
MIC [3]: 400 µg/mL (≈ 850 µM)
MIC (Klebsiella neumoniae 806): 3.1 µg/mL (≈ 6.59 µM)
MIC (E. coli NIHJ): 3.1 µg/mL (≈ 6.59 µM)
MIC (Proteus vulgaris): 3.1 µg/mL (≈ 6.59 µM)
MIC [4]: 0.2 µg/mL (≈ 0.425 µM)
MIC [5]: 3.1 µg/mL (≈ 6.59 µM)
MIC [6]: 0.8 µg/mL (≈ 1.7 µM)
MIC [7, 8]: 3.1 µg/mL (≈ 6.59 µM)

C#CCSCC(=O)N[C@]1(OC)C(=O)N2C(C(=O)O)=C(COC(C)=O)CS[C@@H]21 [7β-propargylthioacetamido-7α-methoxy-3-acetoxymethyl-3-cephem-4-carboxylic acid]
MIC [1]: 3.1 µg/mL (≈ 7.48 µM)
antimicrobial activity against broad pathogenic microorganisms [2]: excellent antimicrobial activity
MIC [3]: > 400 µg/mL
MIC (Klebsiella neumoniae 806): 6.2 µg/mL (≈ 15 µM)
MIC (E. coli NIHJ): 3.1 µg/mL (≈ 7.48 µM)
MIC (Proteus vulgaris): 6.2 µg/mL (≈ 15 µM)
MIC [4]: 0.8 µg/mL (≈ 1.93 µM)
MIC [5]: 6.2 µg/mL (≈ 15 µM)
MIC [6]: 1.5 µg/mL (≈ 3.62 µM)
MIC [7, 8]: 6.2 µg/mL (≈ 15 µM)

C#CCSCC(=O)N[C@]1(OC)C(=O)N2C(C(=O)O)=C(COC(N)=O)CS[C@@H]21 [7β-propargylthioacetamido-7α-methoxy-3-carbamoyloxymethyl-3-cephem-4-carboxylic acid]
MIC [1]: 1.5 µg/mL (≈ 3.61 µM)
antimicrobial activity against broad pathogenic microorganisms [2]: excellent antimicrobial activity
MIC [3]: > 400 µg/mL
MIC (Klebsiella neumoniae 806): 3.1 µg/mL (≈ 7.46 µM)
MIC (E. coli NIHJ): 3.1 µg/mL (≈ 7.46 µM)
MIC (Proteus vulgaris): 6.2 µg/mL (≈ 14.9 µM)
MIC [4]: 0.8 µg/mL (≈ 1.93 µM)
MIC [5]: 3.1 µg/mL (≈ 7.46 µM)
MIC [6]: 1.5 µg/mL (≈ 3.61 µM)
MIC ([7]; Shigella flexneri): 6.2 µg/mL (≈ 14.9 µM)
